What was measured:
[1] = system: Bacillus cereus; assay: Agar plate disc-diffusion, antibacterial; assay type: cell-based
Experimental: (§1) The agar plate disc-diffusion method was applied. […] The discs were then placed onto the surface of agar plates (nutrient agar for bacteria and Sabouraud's dextrose agar for fungi) seeded with the test organism. Each plate contained 15 of the agar medium, previously seeded with 0.2 mL of the broth culture of each organism pre-grown for 18 hours. The plates were incubated at 37° C. for 48 hours and 72 hours for fungi. The inhibition zones were measured in mm. Discs impregnated with DMSO were used as a control, and their inhibition zone was subtracted from the tested compound's actual inhibition zone.

[2] = system: Pseudomonas aeruginosa; assay: Agar plate disc-diffusion, antibacterial; assay type: cell-based
Experimental: as §1

[3] = system: Staphylococcus aureus; assay: Agar plate disc-diffusion, antibacterial; assay type: cell-based
Experimental: as §1

[4] = system: Escherichia coli; assay: Agar plate disc-diffusion, antibacterial; assay type: cell-based
Experimental: as §1

[5] = system: Aspergillus flavus; assay: Agar plate disc-diffusion, antifungal; assay type: cell-based
Experimental: as §1

[6] = system: Chrysosporium keratinophilum; assay: Agar plate disc-diffusion, antifungal; assay type: cell-based
Experimental: The agar plate disc-diffusion method was applied. Sterilized filter papers (6 mm in diameter) were wetted with 10 μL of a solution of N′-(2-(5-phenyl-1,3,4-oxadiazol-2-ylthio)acetoxy)-2-naphthimidamide (3) to be tested, containing 10 mg/mL in DMSO, and the discs were allowed to air dry. The discs were then placed onto the surface of agar plates (nutrient agar for bacteria and Sabouraud's dextrose agar for fungi) seeded with the test organism. Each plate contained 15 of the agar medium, previously seeded with 0.2 mL of the broth culture of each organism pre-grown for 18 hours. The plates were incubated at 37° C. for 48 hours and 72 hours for fungi. The inhibition zones were measured in mm. Discs impregnated with DMSO were used as a control, and their inhibition zone was subtracted from the tested compound's actual inhibition zone.

[7] = B = concentration of comp. = 30.000 μL
[8] = C = concentration of comp. = 50,000 μL
[9] = A = concentration of comp. = 10,000 μL
[10] = column A (key only in Table 1: 10,000 μL)
[11] = column B (key only in Table 1: 30.000 μL)
[12] = column C (key only in Table 1: 50,000 μL)

SMILES | inhibition zone ([1]; A = concentration of comp.) [mm] | inhibition zone [1, 7] [mm] | inhibition zone [1, 8] [mm] | inhibition zone [2, 9] [mm] | inhibition zone [2, 7] [mm] | inhibition zone [2, 8] [mm] | inhibition zone [3, 9] [mm] | inhibition zone [3, 7] [mm] | inhibition zone [3, 8] [mm] | inhibition zone [4, 9] [mm] | inhibition zone [4, 7] [mm] | inhibition zone [4, 8] [mm] | melting point [°C] | inhibition zone [5, 10] [mm] | inhibition zone [5, 11] [mm] | inhibition zone [5, 12] [mm] | inhibition zone [6, 10] [mm] | inhibition zone [6, 11] [mm] | inhibition zone [6, 12] [mm]
O=C(O)c1cn(C2CC2)c2cc(N3CCNCC3)c(F)cc2c1=O [Cip., ciprofloxacin, reference compound] | 29 | 30 | 42 | 29 | 30 | 53 | 43 | 44 | 53 | 30 | 39 | 60 |  |  |  |  |  |  | 
N/C(=N\OC(=O)CSc1nnc(-c2ccccc2)o1)c1cccc2ccccc12 [Compound 3, N′-(2-(5-phenyl-1,3,4-oxadiazol-2-ylthio)acetoxy)-1-naphthimidamide] | 19 | 26 | 35 | 22 | 30 | 37 | 29 | 35 | 44 | 35 | 39 | 45 | 177 to 178 | 15 | 22 | 30 | 29 | 37 | 43

Source: patent publication US11897849B1, “N′-(2-(5-phenyl-1,3,4-oxadiazol-2-ylthio)acetoxy)-1-naphthimidamide as antimicrobial compound” (KING FAISAL UNIVERSITY, priority 2023, dated 2024)
